From ChEMBL document CHEMBL5523728, “Fragment-Based Discovery of a Series of Allosteric-Binding Site Modulators of β-Glucocerebrosidase” (J Med Chem, 2024)
Active and inactive are the calls of the source. The calls are words filed in the database; no cut-off is given here.

What follows are molecules tested against T1, Lysosomal acid glucosylceramidase (Homo sapiens, UniProt P04062) (assay: Positive allosteric modulation of GCase in human Fibroblast cells using GBA1-FQ2 as substrate preincubated for 24 hrs followed by substrate addition and measured after 3 hrs by Hoechst 33342 staining based imaging analysis). Details: not given.
T1 sequence (P04062 whole entry): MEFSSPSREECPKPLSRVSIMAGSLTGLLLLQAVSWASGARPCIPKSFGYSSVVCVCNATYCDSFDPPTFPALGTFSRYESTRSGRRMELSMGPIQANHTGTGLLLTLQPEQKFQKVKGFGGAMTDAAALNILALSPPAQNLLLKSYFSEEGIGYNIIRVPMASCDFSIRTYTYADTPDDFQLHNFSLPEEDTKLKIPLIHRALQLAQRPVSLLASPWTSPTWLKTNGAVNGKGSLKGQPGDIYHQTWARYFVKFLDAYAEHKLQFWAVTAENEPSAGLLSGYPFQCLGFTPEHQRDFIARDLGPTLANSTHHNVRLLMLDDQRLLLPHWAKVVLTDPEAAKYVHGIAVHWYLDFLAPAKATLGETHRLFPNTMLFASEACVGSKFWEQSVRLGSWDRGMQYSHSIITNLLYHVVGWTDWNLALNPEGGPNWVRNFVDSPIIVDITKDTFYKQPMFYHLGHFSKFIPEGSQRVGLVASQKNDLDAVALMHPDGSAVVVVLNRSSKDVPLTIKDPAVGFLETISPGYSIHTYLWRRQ
Format: cell-based
Molecule `C=C(C)c1cccc([C@@H](N)CN(C)S(=O)(=O)c2cc(F)cc(F)c2)c1` has an EC50 of 9 µM.
In the case of `CCCOc1cc(F)cc(S(=O)(=O)N(C)C[C@@H](N)c2cccc(N(C)C)c2)c1`, the EC50 is reported as 8.9 µM.

What follows are molecules tested against T1, Lysosomal acid glucosylceramidase (assay: biochemical). Details: not given.
For `CN(C[C@H](N)c1cccc(Cl)c1)S(=O)(=O)c1cc(F)cc(F)c1`, the Kd was 0.25 µM.
Work on `c1ccc(CC2CCNCC2)cc1` yielded a Kd of 19 µM.
In the case of `O=S(=O)(NCC1CC1)c1ccccc1`, the Kd is reported as 410 µM.
In the case of `Cc1ccc(S(=O)(=O)NCC(C)N)cc1` (racemic), the Kd is reported as 100 µM.
`C=C(C)c1cccc([C@@H](N)CN(C)S(=O)(=O)c2cc(F)cc(F)c2)c1` was tested, and the Kd was 0.05 µM.
`CN(CC(F)F)c1cccc([C@@H](N)CN(C)S(=O)(=O)c2cc(F)cc(F)c2)c1` was tested, and the Kd was 0.22 µM.
`CN(C[C@@H](N)c1cccc(Br)c1)S(=O)(=O)c1cc(F)cc(F)c1` gave a Kd of 0.18 µM.
`N[C@H](CNS(=O)(=O)c1cc(F)cc(F)c1)c1ccccc1` showed a Kd of 1 µM.
With `CCCOc1cc(F)cc(S(=O)(=O)N(C)C[C@@H](N)c2cccc(N(C)C)c2)c1` the Kd was 0.018 µM.
`N[C@H](CNS(=O)(=O)c1cccc(F)c1)c1ccccc1` showed a Kd of 3 µM.
`N[C@H](CNS(=O)(=O)c1ccccc1)c1ccccc1` showed a Kd of 7 µM.
With `NCC(O)CNS(=O)(=O)c1ccccc1F` (racemic) the Kd was 180 µM.

What follows are molecules tested against T2, Lysosomal acid glucosylceramidase (Homo sapiens) (UniProt P04062) (assay: not given). Details: Fibroblast, dose 0.5 mM, time 27.0 hrs.
T2 sequence (whole entry): T1 sequence (P04062 whole entry)
In the case of `O[C@H]1[C@H](O)[C@@H](O)[C@@H]2O[C@@H]2[C@@H]1O`, the inhibition is reported as “Active”.
